Assay: Durability of SHC powders: active chlorine content titrated after storage under ambient conditions
Assay type: physicochemical
Details: for active chlorine content: as synthesized, before storage; for Active chlorine content, 2 month / Active chlorine content, 4 month / Active chlorine content, 6 month: storage at about 25° C.±3, humidity about 60±10%
Protocol: Durability and Rechargeability of the SHCs. Durability: After storage under ambient conditions (e.g., temperature about 25° C.±3, humidity about 60±10%) for a certain period of time, the active chlorine contents in the SHC samples were titrated and the results were listed in Table 3.

| Compound | active chlorine content | Active chlorine content, 2 month | Active chlorine content, 4 month | Active chlorine content, 6 month |
| --- | --- | --- | --- | --- |
| CC1(C)CC(OC(=O)CCCCCCCCC(=O)OC2CC(C)(C)N(Cl)C(C)(C)C2)CC(C)(C)N1Cl [SHC-1, Bis(N-chloro-2,2,6,6-tetramethyl-4-piperidyl)sebacate] | 12.5% | 12.6 wt. % | 12.8 wt. % | 12.4 wt. % |
| N-chloro-[(2,2,6,6-tetramethyl-4-piperidyl) alkyl formate] [SHC-3] | about 7.86% | 8.10 wt. % | 7.70 wt. % | 7.30 wt. % |
